Test results as given in patent US11548870B2, “Compounds useful as inhibitors of helios protein” (Bristol-Myers Squibb Company, priority 2019, dated 2023).
Values joined by “and” are separate entries in the source; they are usually repeats but may differ in a detail not shown here. Equal entries are not always repeated. Where two headings read alike, the source gives them in different places.

Experiments:
Ikaros = biological target: T1, Ikaros (Homo sapiens, UniProt Q13422); assay: Helios Cellular Degradation Assay, Ikaros readout (flow cytometry, Ikaros-Alexa488 antibody staining, 72 h); format: cell-based; settings: Jurkat cells, 72 h incubation, flow cytometry; for Dmax: Jurkat, read-out: Ikaros Dmax
T1 construct: fluorescently labelled antibodies against Helios and Ikaros; endogenous in cells; host or cells: Jurkat cells
Experimental: (§1) Helios Cellular Degradation Assay
(§2) Jurkat cells were plated at 80,000 cells/well in 40 μL RPMI+10% FBS in a 384 well cell culture plate prior to using acoustic dispensing technology for adding compound of interest. Cell cultures were incubated for 72 h at 37° C. and 5% CO2. In order to facilitate analysis, cell cultures were spun down at 200 rpm for 5 min and the supernatant was discarded. After shaking the plate to dislodge the cell pellet, cells were resuspended in 50 μL of Fixation Buffer (eBioScience FoxP3 buffer set 0000) for 60 min at room temperature. After centrifuging and discarding the supernatant, cells were permeabilized with 50 μL of Permeabilization buffer (eBioScience FoxP3 buffer set 00-5523-00) for 10 min at room temperature. Following permeabilization, cells were spun down and the supernatant was replaced with 20 μL fluorescently labelled antibodies against Helios and Ikaros or corresponding Isotype controls in 1× Permeabilization buffer (Ikaros-Alexa488 [Biolegend, Cat #368408, 1:50], Helios-PE [CST, Cat #29360, 1:50]) and staining reactions were incubated for 1 h at room temperature; protected from light. Subsequently, 30 μL of 1× Permeabilization buffer was added prior to centrifuging the cells and discarding the supernatant. Stained cells were resuspended in 25 μL of flow cytometry staining buffer (PBS+0.2% BSA) and analyzed using an Intellicyt Ique Plus flow cytometer.
as §2, with “00-5523-00)” for “0000)”

Helios = biological target: T2, Helios (Homo sapiens, UniProt Q96SW2+Q9UKS7); assay: Helios Cellular Degradation Assay (flow cytometry, Helios-PE antibody staining, 72 h); format: cell-based; settings: for Dmax: Jurkat, read-out: Helios Dmax
T2 construct: fluorescently labelled antibodies against Helios and Ikaros; endogenous in cells; host or cells: Jurkat cells
Experimental: as §1, §2
as §2, with “00-5523-00)” for “0000)”

[1] = Jurkat cells, 72 h incubation, flow cytometry

T2 sequence (Q9UKS7 whole entry): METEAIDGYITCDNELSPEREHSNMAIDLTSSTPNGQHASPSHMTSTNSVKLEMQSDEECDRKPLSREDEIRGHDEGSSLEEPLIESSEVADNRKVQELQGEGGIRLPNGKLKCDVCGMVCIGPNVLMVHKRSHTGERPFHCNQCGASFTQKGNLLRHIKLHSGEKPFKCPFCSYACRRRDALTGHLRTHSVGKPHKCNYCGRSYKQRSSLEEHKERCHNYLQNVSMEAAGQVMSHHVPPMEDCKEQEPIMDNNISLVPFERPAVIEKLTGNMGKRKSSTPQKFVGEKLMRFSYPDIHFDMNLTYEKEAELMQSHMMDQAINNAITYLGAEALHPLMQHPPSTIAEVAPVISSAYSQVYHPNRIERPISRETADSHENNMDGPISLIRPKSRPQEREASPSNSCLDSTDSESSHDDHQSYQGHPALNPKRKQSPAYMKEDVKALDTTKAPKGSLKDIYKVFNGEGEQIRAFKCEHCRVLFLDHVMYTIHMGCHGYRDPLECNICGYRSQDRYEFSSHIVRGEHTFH
T2 sequence (Q96SW2 whole entry): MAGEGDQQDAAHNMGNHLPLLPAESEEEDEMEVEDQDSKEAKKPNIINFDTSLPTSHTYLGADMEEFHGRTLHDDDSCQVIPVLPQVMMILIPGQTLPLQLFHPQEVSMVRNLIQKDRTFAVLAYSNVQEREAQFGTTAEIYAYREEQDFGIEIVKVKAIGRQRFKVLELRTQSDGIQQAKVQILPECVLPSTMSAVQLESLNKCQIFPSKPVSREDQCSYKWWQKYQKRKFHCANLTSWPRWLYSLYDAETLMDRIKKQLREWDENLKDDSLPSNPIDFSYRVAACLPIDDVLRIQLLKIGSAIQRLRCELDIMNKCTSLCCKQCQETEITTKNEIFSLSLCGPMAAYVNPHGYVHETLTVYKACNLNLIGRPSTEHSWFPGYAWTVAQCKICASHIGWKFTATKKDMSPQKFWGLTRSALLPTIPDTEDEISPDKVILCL
T2 sequence (Q16531 whole entry partner): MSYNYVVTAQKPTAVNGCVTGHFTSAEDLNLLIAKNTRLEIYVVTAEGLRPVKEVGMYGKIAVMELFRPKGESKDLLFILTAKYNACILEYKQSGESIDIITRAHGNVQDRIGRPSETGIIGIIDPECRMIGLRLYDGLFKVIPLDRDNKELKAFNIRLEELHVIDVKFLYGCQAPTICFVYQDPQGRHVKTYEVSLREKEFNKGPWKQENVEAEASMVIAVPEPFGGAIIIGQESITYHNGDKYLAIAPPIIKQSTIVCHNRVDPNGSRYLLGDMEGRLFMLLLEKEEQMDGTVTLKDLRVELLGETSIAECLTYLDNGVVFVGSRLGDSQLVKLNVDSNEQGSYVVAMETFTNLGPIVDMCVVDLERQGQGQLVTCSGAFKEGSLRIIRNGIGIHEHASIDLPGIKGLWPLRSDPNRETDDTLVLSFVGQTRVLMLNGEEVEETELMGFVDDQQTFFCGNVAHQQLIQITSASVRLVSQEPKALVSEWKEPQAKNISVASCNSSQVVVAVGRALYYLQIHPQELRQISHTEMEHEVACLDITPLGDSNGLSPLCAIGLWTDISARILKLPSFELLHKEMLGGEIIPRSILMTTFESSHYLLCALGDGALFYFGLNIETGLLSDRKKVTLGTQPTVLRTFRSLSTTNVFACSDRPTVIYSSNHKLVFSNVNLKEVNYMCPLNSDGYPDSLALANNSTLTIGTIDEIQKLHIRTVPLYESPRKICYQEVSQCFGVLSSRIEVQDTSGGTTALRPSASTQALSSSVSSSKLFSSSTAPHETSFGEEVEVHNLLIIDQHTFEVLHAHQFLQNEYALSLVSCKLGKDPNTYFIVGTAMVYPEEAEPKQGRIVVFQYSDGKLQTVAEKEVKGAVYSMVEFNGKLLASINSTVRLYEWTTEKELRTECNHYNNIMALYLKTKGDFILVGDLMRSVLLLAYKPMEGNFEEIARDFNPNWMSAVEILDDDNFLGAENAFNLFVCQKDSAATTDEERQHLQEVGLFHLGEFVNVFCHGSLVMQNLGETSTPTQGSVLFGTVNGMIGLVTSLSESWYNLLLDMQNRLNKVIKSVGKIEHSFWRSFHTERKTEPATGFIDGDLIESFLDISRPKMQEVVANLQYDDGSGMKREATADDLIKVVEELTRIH
T1 sequence (Q96SW2 whole entry partner): as the sequence (Q96SW2 whole entry) above
T1 sequence (Q16531 whole entry partner): as the sequence (Q16531 whole entry partner) above
T1 sequence (Q13422 whole entry): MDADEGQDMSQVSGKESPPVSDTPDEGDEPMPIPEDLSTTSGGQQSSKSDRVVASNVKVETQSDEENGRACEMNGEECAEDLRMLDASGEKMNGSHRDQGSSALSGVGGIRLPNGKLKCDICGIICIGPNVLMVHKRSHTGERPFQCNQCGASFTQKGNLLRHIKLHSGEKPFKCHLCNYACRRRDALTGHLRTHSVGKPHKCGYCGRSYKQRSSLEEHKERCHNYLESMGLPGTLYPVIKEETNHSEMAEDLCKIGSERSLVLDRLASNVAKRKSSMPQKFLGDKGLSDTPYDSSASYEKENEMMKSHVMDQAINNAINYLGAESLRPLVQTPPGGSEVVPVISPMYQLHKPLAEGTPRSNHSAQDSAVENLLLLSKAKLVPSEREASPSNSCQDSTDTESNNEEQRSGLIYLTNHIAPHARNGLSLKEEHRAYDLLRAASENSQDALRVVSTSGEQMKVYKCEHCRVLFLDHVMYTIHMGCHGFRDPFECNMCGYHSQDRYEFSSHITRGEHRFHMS

Row | Compound | DC50 (Ikaros) [nM] | DC50 (Helios; [1]) [nM] | Dmax (Ikaros) [%] | Dmax (Helios; [1]) [%] | Ikaros Dmax (Ikaros) | Helios Dmax (Helios; [1]) | Dmax (Helios) [%]
1 | 3-(1-oxo-5-(4-((4-(pyridin-2-yl)piperidin-1-yl)methyl)pyridin-2-yl)isoindolin-2-yl)piperidine-2,6-dione [Example 15] | > 10000 | > 10000 | – | – | 8% | 5% | –
2 | 3-(1-oxo-5-(4-((4-(pyrimidin-2-yl) piperidin-1-yl)methyl)pyridin-2-yl)isoindolin-2-yl)piperidine-2,6-dione [Example 18] | > 10000 | > 10000 | – | – | 19% | 21% | –
3 | 3-(5-(4-(((cyclobutylmethyl)(methyl)amino)methyl)pyridin-2-yl)-1-oxoisoindolin-2-yl)piperidine-2,6-dione [Example 178] | > 10000 | 131 | – | – | 15% | 82% | –
4 | O=C1CCC(N2Cc3cc(-c4cc(CN5CCC5c5ccccc5)ccn4)ccc3C2=O)C(=O)N1 (single isomer, unassigned) [Example 204, 3-(1-oxo-5-(4-((2-phenylazetidin-1-yl)methyl)pyridin-2-yl)isoindolin-2-yl)piperidine-2,6-dione] | > 10000 | > 10000 | – | – | – | 2.42% and 2.4% | –
5 | CN(C)Cc1ccnc(-c2ccc3c(c2)CN(C2CCC(=O)NC2=O)C3=O)c1 (stereo not shown) [Example 1, 3-(5-{4-[(Dimethylamino)methyl]pyridin-2-yl}-1-oxo-2,3-dihydro-1H-isoindol-2-yl) piperidine-2,6-dione] | > 10000 | 25 | 9 | 84 | – | – | –
6 | CCN(C)Cc1ccnc(-c2ccc3c(c2)CN(C2CCC(=O)NC2=O)C3=O)c1 (stereo not shown) [Example 6] | > 10000 | 28 | – | – | 6% | 86% | –
7 | COCCN(C)Cc1ccnc(-c2ccc3c(c2)CN(C2CCC(=O)NC2=O)C3=O)c1 (stereo not shown) [Example 7, 3-(5-(4-(((2-methoxyethyl)(methyl)amino)methyl)pyridin-2-yl)-1-oxoisoindolin-2-yl)piperidine-2,6-dione] | > 10000 | 138 | 20 | 85 | – | – | –
8 | O=C1CCC(N2Cc3cc(-c4cc(CN5CCCC5)ccn4)ccc3C2=O)C(=O)N1 (stereo not shown) [Example 8, 3-(1-oxo-5-(4-(pyrrolidin-1-ylmethyl)pyridin-2-yl)isoindolin-2-yl)piperidine-2,6-dione] | > 10000 | 26 | 18 | 85 | – | – | –
9 | O=C1CCC(N2Cc3cc(-c4cc(CN5CCC(n6c(=O)[nH]c7ccccc76)CC5)ccn4)ccc3C2=O)C(=O)N1 (stereo not shown) [Example 11, 3-(1-oxo-5-(4-((4-(2-oxo-2,3-dihydro-1H-benzo[d]imidazol-1-yl)piperidin-1-yl)methyl)pyridin-2-yl)isoindolin-2-yl)piperidine-2,6-dione] | > 10000 | 573 | 7 | – | – | – | 59
10 | O=C1CCC(N2Cc3cc(-c4cc(CN5CCN(Cc6ccc7c(c6)OCO7)CC5)ccn4)ccc3C2=O)C(=O)N1 (stereo not shown) [Example 12, 3-(5-(4-((4-(benzo[d][1,3]dioxol-5-ylmethyl)piperazin-1-yl)methyl)pyridin-2-yl)-1-oxoisoindolin-2-yl)piperidine-2,6-dione] | > 10000 | > 10000 | 16 | 37 | – | – | –
11 | CC(C)N(Cc1ccccc1)Cc1ccnc(-c2ccc3c(c2)CN(C2CCC(=O)NC2=O)C3=O)c1 (stereo not shown) [Example 19, 3-(5-(4-((benzyl(isopropyl)amino)methyl)pyridin-2-yl)-1-oxoisoindolin-2-yl)piperidine-2,6-dione] | > 10000 | 154 | 50 | 82 | – | – | –
12 | CC1CCCN1Cc1ccnc(-c2ccc3c(c2)CN(C2CCC(=O)NC2=O)C3=O)c1 (stereo not shown) [Example 20, 3-(5-(4-((2-methylpyrrolidin-1-yl)methyl)pyridin-2-yl)-1-oxoisoindolin-2-yl)piperidine-2,6-dione] | > 10000 | 60 | 11 | 80 | – | – | –
13 | CN(C)CCN(C)Cc1ccnc(-c2ccc3c(c2)CN(C2CCC(=O)NC2=O)C3=O)c1 (stereo not shown) [Example 21, 3-(5-(4-(((2-(dimethylamino)ethyl) (methyl)amino)methyl)pyridin-2-yl)-1-oxoisoindolin-2-yl)piperidine-2,6-dione] | > 10000 | > 10000 | 4 | 35 | – | – | –

Further lines, with some results ahead:

Row | DC50 (Ikaros) [nM] | DC50 (Helios; [1]) [nM] | Dmax (Ikaros) [%] | Dmax (Helios; [1]) [%] | Compound | Ikaros Dmax (Ikaros) | Helios Dmax (Helios; [1]) | Dmax (Helios) [%]
14 | > 10000 | > 10000 | – | – | O=C1CCC(N2Cc3cc(-c4cc(CN5CCC5c5ccccc5)ccn4)ccc3C2=O)C(=O)N1 (single isomer, unassigned) [Example 205, 3-(1-oxo-5-(4-((2-phenylazetidin-1-yl)methyl)pyridin-2-yl)isoindolin-2-yl)piperidine-2,6-dione] | 8.15% and 6% | – | –
15 | > 10000 | 11 | 16 | 92 | O=C1CCC(N2Cc3cc(-c4cc(CNCc5ccccc5)ccn4)ccc3C2=O)C(=O)N1 (stereo not shown) [Example 2, 3-(5-(4-((benzylamino)methyl)pyridin-2-yl)-1-oxoisoindolin-2-yl)piperidine-2,6-dione] | – | – | –
16 | > 10000 | 38 | 3 | 87 | CCCN(C)Cc1ccnc(-c2ccc3c(c2)CN(C2CCC(=O)NC2=O)C3=O)c1 (stereo not shown) [Example 3, 3-(5-(4-((methyl(propyl)amino)methyl)pyridin-2-yl)-1-oxoisoindolin-2-yl)piperidine-2,6-dione] | – | – | –
17 | > 10000 | 96 | 8 | 84 | CCN(C)Cc1ccnc(-c2ccc3c(c2)CN(C2CCC(=O)NC2=O)C3=O)c1 (stereo not shown) [Example 4, 3-(5-(4-((ethyl(methyl)amino)methyl)pyridin-2-yl)-1-oxoisoindolin-2-yl)piperidine-2,6-dione] | – | – | –
18 | > 10000 | 44 | – | – | CCN(C)Cc1ccnc(-c2ccc3c(c2)CN(C2CCC(=O)NC2=O)C3=O)c1 (stereo not shown) [Example 5] | 5% | 90% | –
19 | > 10000 | 167 | 4 | 87 | CCCCN(C)Cc1ccnc(-c2ccc3c(c2)CN(C2CCC(=O)NC2=O)C3=O)c1 (stereo not shown) [Example 9, 3-(5-(4-((butyl(methyl)amino)methyl)pyridin-2-yl)-1-oxoisoindolin-2-yl)piperidine-2,6-dione] | – | – | –
20 | > 10000 | 183 | 9 | 67 | CCCN(Cc1ccnc(-c2ccc3c(c2)CN(C2CCC(=O)NC2=O)C3=O)c1)CC1CC1 (stereo not shown) [Example 10, 3-(5-(4-(((cyclopropylmethyl)(propyl)amino)methyl)pyridin-2-yl)-1-oxoisoindolin-2-yl)piperidine-2,6-dione] | – | – | –
21 | > 10000 | 200 | 8 | 67 | CCN(CC)C(=O)C1CCCN(Cc2ccnc(-c3ccc4c(c3)CN(C3CCC(=O)NC3=O)C4=O)c2)C1 (stereo not shown) [Example 13, 1-((2-(2-(2,6-dioxopiperidin-3-yl)-1-oxoisoindolin-5-yl)pyridin-4-yl)methyl)-N,N-diethylpiperidine-3-carboxamide] | – | – | –
22 | > 10000 | 36 | 16 | 80 | CC1CCN(Cc2ccnc(-c3ccc4c(c3)CN(C3CCC(=O)NC3=O)C4=O)c2)CC1 (stereo not shown) [Example 14, 3-(5-(4-((4-methylpiperidin-1-yl)methyl)pyridin-2-yl)-1-oxoisoindolin-2-yl)piperidine-2,6-dione] | – | – | –
23 | > 10000 | 788 | 12 | 63 | CN(CCc1ccccn1)Cc1ccnc(-c2ccc3c(c2)CN(C2CCC(=O)NC2=O)C3=O)c1 (stereo not shown) [Example 16, 3-(5-(4-((methyl(2-(pyridin-2-yl)ethyl)amino)methyl)pyridin-2-yl)-1-oxoisoindolin-2-yl) piperidine-2,6-dione] | – | – | –
24 | > 10000 | > 10000 | 11 | 16 | O=C1CCC(N2Cc3cc(-c4cc(CN5CCC(N6CCCCC6)CC5)ccn4)ccc3C2=O)C(=O)N1 (stereo not shown) [Example 17, 3-(5-(4-([1,4′-bipiperidin]-1′-ylmethyl)pyridin-2-yl)-1-oxoisoindolin-2-yl)piperidine-2,6-dione] | – | – | –
